Molecules are shown by their SMILES. Where two headings read alike, the source gives them in different places. Marks after values point to notes of the source that are not given here.

The record followed here is patent US20240139185A1, “COMPOUNDS THAT PARTICIPATE IN COOPERATIVE BINDING AND USES THEREOF” (Revolution Medicines, Inc., priority 2018, published 2024).

For data set [1], the target named is cyclophilin A (CYPA) (Homo sapiens, UniProt P62937). Put plainly: CYPA-compound binary complex formation by SPR. As to conditions: read-out: CYPA Binding Affinity. A digest of the protocol: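 CypA-Avi captured on a Biotin CAPture chip (4 μg/ml), reference flow cell subtracted. Compounds injected as 10-point 2-fold dilutions from 50 μM in HBS-P+ pH7.4 with 2% DMSO; 60 s association and 60 s dissociation, solvent-corrected. Affinity obtained by steady-state fitting.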
On the technique in general: In SPR one partner is held on a chip, and binding of the other changes the refractive index at the surface.

For data set [2], the target named is T1, BRAF-GTP-KRAS-G12C complex (Homo sapiens, UniProt P01116, G12C).
T1 construct: 50 nM of His6-KRas G12C-GTP (1-169)
Description: KRAS-BRAF complex disruption TR-FRET without CYPA (presenter dependence). The format is biochemical. On the procedure:
(§1) In this example, TR-FRET was used to measure the compound-facilitated disruption of a KRAS-BRAF complex. A mixture of tagless Cyclophilin A, His6-KRAS G12C-GMP-PNP, and GST-BRAF RAS binding domain was added to a 384-well assay plate containing compounds of the invention and incubated for 3 hours. A mixture of Anti-His Eu-W1024 and anti-GST allophycocyanin was then added and the reaction was incubated for an additional 1.5 hours. TR-FRET signal was read on an EnVision microplate reader (Perkin Elmer, Ex 320 nm, Em 665/615 nm). Compounds that facilitate disruption of a KRAS_BRAF complex were identified as those eliciting a decrease in the TR-FRET ratio relative to DMSO control wells. To determine the presenter-dependence of the compound-mediated KRAS-BRAF complex disruption, Cyclophilin A was left out of the initial incubation (see Table 5). To determine G12C specificity of the compound-mediated KRAS-BRAF complex disruption, wild-type KRAS was used instead of G12C KRAS (see Table 5).
(§2) Reagents and Instrument • Tagless CYPA; 519 μM in PBS buffer, pH 7.4 • GST BRAF; 110 μM in PBS buffer, pH 7.4 • His6-KRASG12C-GMP-PNP; 50 μM in PBS buffer, pH 7.4 • His6-KRASWT-GMP-PNP; 40 μM in PBS buffer, pH 7.4 • Anti-His Eu-W1024 (LANCE® Eu-W1024; Perkin Elmer) • Anti-GST allophycocyanin (Anti-GST IgG conjugated to SureLight®-Allophycocyanin; Perkin Elmer; Product Number AD0059G) • Test compounds, 10 mM in 100% DMSO • EnVision (Perkin Elmer) • Combi MultiDrop liquid dispenser with 8-channel small volume cassette • 384-well ProxiPlate (black)
(§3) Experimental Protocol • 1. Use Mosquito to dispense 100 nL/well of compounds (varying concentration in […]) into 384-well black ProxiPlate to make assay-ready-plate (ARP). • 2. Make assay buffer containing 25 mM Hepes pH 7.3, 100 mM NaCl, 5 mM MgCl2, 0.05% BSA, and 0.002% Tween-20. • 3. Make PRE-MIX A: delivers final concentrations of 50 nM of His6-KRas G12C-GTP (1-169) and 500 nM of tagless CypA (1-165) in assay buffer. • a. […] Read on EnVision (Ex: 320 nm; Em1: 615 nm; Em2: 665 nm). • 8. […]
In general terms: TR-FRET usually uses a lanthanide donor and a delayed reading to cut background.

Data set [3] addresses T2, KRAS-G12C (Homo sapiens, UniProt P01116+P62937, G12C).
T2 construct: CypA 1-165 (final concentration 5 μM)
Description: Percentage of crosslinking to KRAS-G12C in the presence of BME and CYPA (TOF-MS). The format is biochemical. As to conditions: 60 minute incubation; compound 2 μM, CypA 5 μM, G12C-GMPNP 0.5 μM, BME. The protocol:
• 1. 10×Incubation buffer: 125 mM HEPES pH 7.4, 750 mM NaCl, 10 mM MgCl2 • 2. 50 μM Protein A stock (CypA) in incubation buffer • 3. 5 μM Protein B (G12C-GMPNP) stock in incubation buffer • 4. 20 μM compound stock in 1×Incubation buffer with 10% DMSO • 5. 25 mM BME stock solution (prepared by diluting the BME stock in Milli Q water)
CypA 1-165 (final concentration 5 μM), test compound (final concentration 2 μM) and G12C-GMPNP (final concentration 0.5 μM) were incubated in the incubation buffer ([…]) for the requisite amount of time at room temperature. The samples were quenched with formic acid, final concentration 0.5%. 10 μL aliquots were injected to TOF-MS.
Sequence of Addition for a Final Incubation Volume of 50 μL • 1. 5 μL 10×incubation buffer • 2. 28 ul H2O • 3. 2 μL from 25 mM BME stock • 4. 5 μL CypA at 50 uM • 5. 5 μL from 5 μM G12C-GMPNP • 6. 5 μL compound from 20 μM compound stock
LC-MS is performed on an Agilent 6230 TOF-LC mass spectrometer equipped with an electrospray probe operated in positive ionization mode. 10 μL samples are injected on a Sepax Bio-C4, 300 Å, 2.1×100 mm column. The mobile phase is 0.1% (vol/vol) formic acid and 0.1% 1 mM ammonium formate in 95% water, 4.8% acetonitrile (A) and 0.1% (vol/vol) formic acid and 0.1% 1 mM ammonium formate in 95% acetonitrile and 4.8% water (B). The separation is performed by a 9 min total gradient consisting of 5 min linear gradient from 25% to 50% B, and a wash at 100% B for 1.25 min, all at a flow rate of 0.6 mL/min (see attached timetable below). Mass spectrometer source conditions were capillary voltage, 4,000 V; cone voltage, 120 V; source temperature, 275° C.; scan range, 100-2,000 a.m.u. with a cycle time of 1 s.
The observed mass is generated by averaging the major peak in the total ion current (TIC). The charge-state series of the species are deconvoluted using Agilent MassHunter Bioconfirm using maximum entropy setting (range is set to 17000-23000 Da). […]

The target in data set [4] is T3, BRAF-GTP-KRAS-G12C complex (Homo sapiens, UniProt P01116+P62937, G12C).
T3 construct: 50 nM of His6-KRas G12C-GTP (1-169); 500 nM of tagless CypA (1-165)
Put plainly: KRAS-BRAF complex disruption through competition with CYPA-compound by TR-FRET. The settings on record: biochemical BRAF-KRAS G12C-GTP disruption assay EC50, with CYPA. A digest of the protocol: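 His6-KRAS G12C-GTP (1-169, 50 nM) with tagless CypA (1-165, 500 nM) was incubated with compound for 3 h at room temperature in pH 7.3 Hepes/NaCl/MgCl2 buffer containing GST-BRAF RBD. Anti-His Eu (10 nM) and anti-GST APC (50 nM) were then added for 1.5 h, and the 665/615 nm TR-FRET ratio was read. EC50 from 4-parameter fit; for specificity, wild-type KRAS replaced G12C, and CypA was omitted to test presenter dependence.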

The target of data set [5] is T4, BRAF-GTP-KRASWT complex (Homo sapiens, UniProt P01116+P62937).
T4 construct: substitute His6-KRas WT-GTP (1-169) for His6-KRas G12C-GTP (1-169); 500 nM of tagless CypA (1-165)
Description: KRAS-BRAF complex disruption TR-FRET with wild-type KRAS (G12C specificity). The format is biochemical. The settings on record: with CYPA. The protocol:
as §1, §2, §3

The conditions of data set [6]: 18-membered ring.

One may read the IC50 as the concentration that gives 50% inhibition. Read a low IC50 as inhibition by little substance. One may read the EC50 as the midpoint of the concentration-response curve. Low readings indicate greater potency, high ones weaker potency. With `CC(C)[C@@H](C(=O)N[C@H]1Cc2cc(O)cc(c2)-c2ccc3nc(-c4cccnc4)n(c3c2)CCCOC(=O)[C@@H]2CCCN(N2)C1=O)N(C)C(=O)C1CN(C(=O)CCl)C1` [Compound 169], the Kd in data set [1] was not above 5 µM. For the same compound, the IC50 in data set [2] and in data set [5] was more than 30 µM in each case. In addition, the “% Crosslinking with KRAS-G12C-GTP in presence of CYPA” value in data set [3] is 39^‡ %. The compound further gave an EC50 in data set [4] of 0.5 to 5 µM.
Take `CC(C)[Si](Oc1cc2cc(c1)-c1ccc3c(C#N)cn(c3c1)CC(C)(C)CNC(=O)[C@@H]1CCCN(N1)C(=O)[C@@H](NC(=O)OC(C)(C)C)C2)(C(C)C)C(C)C`: the ring closure, isolated yield in data set [6] (from CC(C)[Si](Oc1cc(C[C@H](NC(=O)OC(C)(C)C)C(=O)N2CCC[C@@H](C(=O)NCC(C)(C)Cn3cc(C#N)c4ccc(Br)cc43)N2)cc(B2OC(C)(C)C(C)(C)O2)c1)(C(C)C)C(C)C, cc_pd bond, Pd(dppf)Cl2.CH2Cl2/K2CO3, dioxane/H2O 5:1, 22.9 mM, 80.0 °C, 2.0 h) is 53%.
The compound `CC(C)[Si](Oc1cc2cc(c1)-c1ccc3c(Br)cn(c3c1)C[C@H](C)COC(=O)[C@@H]1CCCN(N1)C(=O)[C@@H](NC(=O)OC(C)(C)C)C2)(C(C)C)C(C)C` yielded a ring closure, isolated yield in data set [6] (from CC(C)[Si](Oc1cc(C[C@H](NC(=O)OC(C)(C)C)C(=O)N2CCC[C@@H](C(=O)O)N2)cc(-c2ccc3c(Br)cn(C[C@H](C)CO)c3c2)c1)(C(C)C)C(C)C, ester bond, EDCI/HOBt/DIEA, DCM, 122.5 mM, 25.0 °C, 16.0 h) of 59%.
